We go through five substances from US9522187B2, “Cancer therapy using beta glucan and antibodies” (University of Louisville Research Foundation, Inc., priority 2002, dated 2016).

Data set [1] deals with T1, CR3 (Homo sapiens, UniProt P11215).
T1 construct: endogenous in cells
Description: Inhibition of SZP-FITC staining of neutrophils by unlabeled polysaccharides. The format is binding. The note with it: compared with soluble yeast MP β-glucan or SZP. On the procedure: Neutrophils were incubated at 4° C. with graded concentrations of β-glucans (SZP, laminarin, MP β-glucan, barley β-glucan, and lentinan), α-mannan or dextran for 15 minutes and then stained by addition of 1.0 mg/ml of SZP-FITC and incubated for an additional 15 minutes at 4° C. Percentage inhibition was then compared with polysaccharide concentration. […] Similar results were obtained when the same unlabeled polysaccharides were examined for inhibition of laminarin β-glucan-FITC staining. The rank order for inhibiting activity for both experiments was SZP>laminarin>MP β-glucan. However, CM β-glucan (carboxymethyl β-glucan from yeast), barley β-glucan, and lentinan inhibited laminarin-FITC staining more efficiently than they inhibited SZP-FITC staining.

In data set [2] the test system is human LAN-1 neuroblastoma. Description: Oral barley β-glucan with antibody against LAN-1 neuroblastoma xenograft (FIG. 10). The format is in vivo, athymic BALB/c mice. The note with it: β-glucan daily by gavage for 21-29 days; 3F8 i.v. twice weekly. The method, then: Neuroblastoma cells were xenografted subcutaneously in athymic BALB/c mice. Treatment started in groups of 5 mice, 2 weeks after tumor implantation when visible tumors reached 0.7-0.8 cm in diameter. The β-glucan groups was treated with […] daily by gavage for a total of 21-29 days. Monoclonal antibodies (3F8) were administered i.v. at a dose of […] twice weekly. Tumor size was measured from the first day of treatment, and the product of the largest diameter was expressed as a percentage of the size on day zero.

Data set [3] has as its target T1, CR3. Description: Neutrophil fluorescence staining by FITC-labeled polysaccharides (flow cytometry). The format is binding. To be noted: neutrophils. From the text:
Fluorescence intensity values obtained with individual polysaccharide-FITC conjugates cannot be compared, since the molar ratio of FITC to polysaccharide is likely to differ and cannot be readily calculated.

The test system of the next data set is Human NK cells. Put plainly: β-glucan and CR3-dependent stimulation of NK cell cytokine secretion, ELISA (FIG. 13). The format is cell-based. The note with it: 18 hours at 37° C.; particulate yeast β-glucan and grifolan 2 g/ml, MP β-glucan and SZP 2.0 μg/ml. On the procedure:
The function of NK cells in mediating host defense includes both direct cytotoxicity of tumor cells and the secretion of cytokines such as TNF-α and IFN-γ that can potentially regulate immune responses and recruit tumoricidal macrophages. […] Human NK cells were cultured with either particulate yeast β-glucan or soluble CR3-binding polysaccharides for 18 hours at 37° C. Culture supernatants were then analyzed for TNF-α by ELISA. […] Anti-CR3 blocks both β-glucan binding to CR3, as well as the binding of primed CR3 to iC3b on the EC3bi target cells.

Data set [4] concerns advanced low-grade or slow-growing NHL. The note with it: patients who completed treatment; cited from earlier work.
The subject of data set [5] is RMA-S-MUC1 tumor cells. Description: s.c. RMA-S-MUC1 tumor therapy in CR3-deficient versus wild-type mice (FIG. 19, 20). The format is in vivo, C57B1/6 mice. The method, then: FIGS. 19A-19B are graphs showing the enhancement of tumor regression mediated by NSG β-glucan requires leukocyte CR3 and fails in CR3-deficient (CD11b^−/−) mice. FIG. 19A is a graph showing the tumor diameter vs. therapy of wild type mice. FIG. 19B is a graph showing the tumor diameter vs. therapy of CR3 deficient mice. […] Tumor measurements were made at the indicated times (FIGS. 19A-19B) and then survival was monitored (FIGS. 20A-20B). Mice received 14.G2a anti-GD2 ganglioside mAb (100 μg every 3rd day) and/or NSG β-glucan (400 μg daily). There was no difference in the rate of tumor regression produced by mAb therapy alone in the CR3-deficient versus wild-type mice and there was no β-glucan enhancement of mAb-mediated tumor regression in the CR3-deficient mice. […] Mean values±SE of the mean are shown.
(§1) RMA-S cells transfected with human MUC1 were also provided by Dr. Finn (Soares, M. M., et al., J. Immunol., 166: 6555-6563 (2001)), and 1×10^6 cell were implanted s.c. in C57B1/6 mice in or near a mammary fat pad. […]

For another data set, the system named is RMA-S lymphoma. Put plainly: Survival of mice with RMA-S hepatic lymphomas treated with 14.G2a and/or β-glucan (FIG. 16). The format is in vivo, C57B1/6 mice. The note with it: therapy from day 5 for 3 weeks. The method, then:
The C57B1/6 lymphoma EL-4, that highly expresses membrane GD2 ganglioside, was provided by Dr. Nai-Kong V. Cheung. Normal C57B1/6 mice were injected with 3×10^5 EL-4 cells i.v. to generate liver tumors (Zhang, H., et al., Cancer Res., 58: 2844-2849 (1998)). Ten days later, 4 groups of 6 mice were given i.v. 100 μl doses of: a) PBS (control group), b) SZP β-glucan (4 mg/ml) repeated daily, c) 3F8 mAb to GD2 ganglioside (2 mg/ml) repeated every 3rd day, or d) both daily β-glucan and 3F8 mAb every 3rd day. After 2 weeks of therapy, the mice were sacrificed and their livers were removed and weighed in comparison to the livers of a group of normal tumor-free mice. The net weight of liver tumors was calculated by subtracting the weight of a normal liver (1.0 g) from the weights of the livers from tumor-bearing mice. A similar liver tumor model was carried out using the C57B1/6 lymphoma RMA-S that similarly expresses GD2 ganglioside but is defective in peptide loading of MHC class I (kindly provided by Dr. Olivera J. Finn, Pittsburgh Cancer Institute, Pittsburgh, Pa.) in combination with 14.G2a mAb to GD2 ganglioside (100 μg, given i.v. every 3rd day). Mice were similarly divided into 4 groups that were treated beginning 5 days after i.v. injection of 3×10^5 cells with: 1) i.v. PBS (control), 2) i.v. NSG β-glucan (400 μg per day), 3) 14.G2a mAb, or 4) both NSG β-glucan and 14.G2a mAb. […]

The test system of data set [6] is iC3b-opsonized breast tumor cells. Put plainly: β-glucan priming of murine neutrophil CR3 for cytotoxicity (FIG. 4). The format is cell-based. To be noted: normal murine neutrophils. The method, then: The effect of β glucan priming of murine neutrophil CR3 on subsequent cytotoxic triggering by iC3b-opsonized breast tumor cells is shown in FIG. 4. […] This activity disappears, however, when antibody to the CD11b (murineCR3 equivalent) is added, interfering with the receptor's ability to bind to iC3b. […] Adding antibody against CD11b had little effect on CD11b-deficient neutrophils, as expected.

Data set [7] relates to RMA-S-MUC1 tumor cells. Put plainly: s.c. RMA-S-MUC1 tumor therapy with 14.G2a or BCP8 mAb and/or NSG β-glucan (FIG. 17B-C, 18B-C). The format is in vivo, C57B1/6 mice. To be noted: 2-week therapy, observed for a 4-month period. The method, then:
Three different tumor therapy protocols are shown. FIG. 17A is a graph showing Pta64 therapy with 11CI anti-MMTV mAb combined with glucan. FIG. 17B is a graph showing RMA-S-MUC1 therapy with i.v. 14 G2a anti-GD2 mab combined with glucan. FIG. 17C is a graph showing RMA-S-MUC1 therapy with i.v. BCP8 anti-MUC1 mab combined with glucan. After tumor cells were implanted, small tumors were allowed to form over 5-9 days before immunotherapy was carried out for a total period of 14 days. […] In graphs B and C, C57B1/6 mice were implanted s.c. with RMA-S-MUC1 tumor cells and then 5 days later treated with either 14.G2a anti-GD2 ganglioside and/or NSG β-glucan (300 μg per day) or BCP8 IgG2b […] and/or NSG β-glucan ([…] per day). […] Mean values and standard errors (SE) of the mean are shown.
as §1

The subject of data set [8] is Lewis Lung carcinoma tumor cells transfected with human MUC1 (LL/2-MUC1). Put plainly: s.c. LL/2-MUC1 Lewis lung carcinoma therapy in C3-deficient versus wild-type mice (FIG. 21, 22). The format is in vivo, C57B1/6 mice. The method, then:
C3-deficient (C3^−/−) mice and their wild-type littermates on a C57BL/6 background were implanted s.c. with 1×10^6 Lewis Lung carcinoma tumor cells transfected with human MUC1 (LL/2-MUC1). After allowing 7 days for development of small tumors, mice were treated with BCP8 IgG2b anti-MUC1 mAb (200 μg every 3rd day) and/or NSG β-glucan (400 μg daily) for a total therapy period of 3 weeks. […] Mean values±SE of the mean are shown.
Lewis lung carcinoma cells (LL/2, CRL-1642) originally derived from C57B1/6 mice were obtained from the ATCC and transfected with a plasmid containing cDNA for human MUC1 that was provided by Dr. Olivera Finn (Soares, M. M., et al., J. Immunol., 166: 6555-6563, 2001.). A LL/2 line expressing a uniformly high surface density of MUC1 was selected by FACS sorting of cells stained with BCP8-FITC mAb (MoFlo High Speed Cell Sorter, Dako-Cytomation, Fort Collins, Colo.). A further selection was made by passaging the cell line two times in C57B1/6 mice given the cells s.c. A tumor line was selected that both expressed uniformly high levels of surface MUC1 and was capable of generating s.c. tumors in C57B1/6 injected with as few as 5×10^5 cells. Therapy of mice bearing these s.c. tumors was initiated after 7 days when tumors were only 1-2 mm in diameter. Four groups of six C3-deficient or their wild-type littermate C57B1/6 mice were treated with: a) i.v. PBS every 3rd day (control); b) 400 μg of NSG β-glucan given i.v. daily; c) 200 μg of BCP8 anti-MUC1 mAb given i.v. every 3rd day; d) combined therapy with BCP8 mAb and NSG β-glucan. Therapy was given for 3 weeks with measurement of tumor diameters every 3rd day, and mice were sacrificed when tumors reached 15 mm diameter. Mice were observed over a total period of 90 days for tumor-free survival.

A further data set concerns MMT mammary carcinoma. Put plainly: β-glucan therapy of MMT mammary carcinoma in normal and C3-deficient 129/J mice (FIG. 8). The format is in vivo. The note with it: daily i.v. therapy. An excerpt: The requirement for C3 in β-glucan therapy was confirmed in experiments with C3-deficient 129/J mice implanted with the MMT mammary carcinoma. Twelve normal (C3+/+) and 12 C3-deficient (C3−/−) 129/J mice were implanted with the MMT mammary carcinoma tumor cell line and palpable tumors were allowed to form before beginning daily i.v. therapy of groups of 6 mice each with PBS or β-glucan. A similar protocol was used with normal (CD+/+) and CR3-deficient (CD11b-knockout; Cd11b−/−) BALB/c mice implanted with Ptas64 mammary tumors.

Another data set concerns EL-4 lymphoma. Put plainly: mAb and/or β-glucan therapy of hepatic EL-4 lymphoma (FIG. 9, FIG. 15). The format is in vivo, C57B1/6 mice. The note with it: therapy from day 10 for 2 weeks; SZP β-glucan 100 μl of 4 mg/ml i.v. daily; 3F8 100 μl of 2 mg/ml i.v. every 3rd day. The method, then:
Mice were injected with the EL-4 cells i.v., a protocol known to result in liver metastases. Ten days later, the mice were given daily i.v. doses of β-glucan alone, 3F8 mAb to GD2 ganglioside (a prominent tumor antigen of EL-4 cells), or 3-glucan plus 3F8 mAb. The 3F8 mAb is IgG3 and is a potent activator of complement and also mediates ADCC. […] As expected, the β-glucan had little effect on its own since the tumors bore little or no iC3b.
The C57B1/6 lymphoma EL-4, that highly expresses membrane GD2 ganglioside, was provided by Dr. Nai-Kong V. Cheung. Normal C57B1/6 mice were injected with 3×10^5 EL-4 cells i.v. to generate liver tumors (Zhang, H., et al., Cancer Res., 58: 2844-2849 (1998)). Ten days later, 4 groups of 6 mice were given i.v. 100 μl doses of: a) PBS (control group), b) SZP β-glucan (4 mg/ml) repeated daily, c) 3F8 mAb to GD2 ganglioside (2 mg/ml) repeated every 3rd day, or d) both daily β-glucan and 3F8 mAb every 3rd day. After 2 weeks of therapy, the mice were sacrificed and their livers were removed and weighed in comparison to the livers of a group of normal tumor-free mice. The net weight of liver tumors was calculated by subtracting the weight of a normal liver (1.0 g) from the weights of the livers from tumor-bearing mice. […]

As to “(1,3),(1,4)-β-D-glucan [barley β-glucan]”, the “affinity for CR3 (in words)” value on CR3 [1] was “relatively low affinity for CR3”. Moreover, the “tumor growth (tumor size as percentage of day zero), in words” value in data set [2] is given as “neither β-glucan or mAb alone showed much effect”.

Consider Dextran-FITC, for which, at CR3 [3], the “Polysaccharide-FITC Concentration Required for Maximum Specific Fluorescence Staining (Saturation of Receptor Binding Sites)” value is listed as “No specific staining” and the “Specific Fluorescence Mean Channel at Saturation (Total-Nonspecific Fluorescence Obtained in the Presence of Excess of Unlabeled Polysaccharide)” value was 0.

With grifolan, the “NK cell cytokine secretion in the absence of target cells, in words” value in the data set with Human NK cells is “secretion of both TNF-α and IL-6”.

On to “rituximab: monoclonal antibody used to treat a type of non-Hodkin's lymphoma”, for which, in data set [4], the “patients having complete remission” value is 6% and the “patients whose tumors shrunk by at least one half” value is reported as 48%.

As for β-glucan, the “tumor regression, in words” value in the data set with RMA-S-MUC1 tumor cells [5] (CR3-deficient mice) is “no regression”; in [8] (wild-type mice, BCP8 200 μg every 3rd day, NSG β-glucan 400 μg daily, 3 weeks) it was “lower level of regression”. Also, in the data set with RMA-S-MUC1 tumor cells [5] (wild-type mice, 14.G2a 100 μg every 3rd day, NSG β-glucan 400 μg daily, 21 days), the “mice remaining tumor-free (survival)” value is reported as “no survivors”. Further, the “survival, in words” value is “no therapeutic benefit” with RMA-S lymphoma and “survival advantage compared to mAb alone” in [8] (wild-type mice). For the same substance, in [6], the “cytotoxicity towards iC3b-opsonized breast tumor cells, in words” value is given as “high level of cytotoxicity”. Further, the survival with RMA-S-MUC1 tumor cells [7] is on record as 20%. In addition, the “regression and survival, in words” value in [8] (C3-deficient mice) is on record as “neither mAb nor β-glucan, separately or combined, elicited any regression”. The tumor reduction entry is “no significant tumor reduction” in the data set on MMT mammary carcinoma (C3-deficient (C3−/−) 129/J mice) and 79% in the data set with MMT mammary carcinoma (normal (C3+/+) 129/J mice). Also, in the data set on EL-4 lymphoma, the “reduction in liver tumor net weight compared to untreated controls” value is recorded as 25.6%.
